# Data published in patent US20200155575A1, “PHARMACEUTICAL COMPOSITION AND METHODS” (priority 2014, published 2020).
# Experiment: Solubility in pharmaceutically acceptable carriers/excipients
# Type: physicochemical
# Protocol: The solubility of (8R,9S,10R,13S,14S,17S)-10,13-dimethyl-3-oxo-1,2,6,7,8,9,11,12,14,15,16,17-dodecahydrocyclopenta[a]phenanthren-17-yl tridecanoate was determined in the solvents (typical pharmaceutical carriers) listed below.
compound,measurement,setting,value
"CCCCCCCCCCCCC(=O)O[C@H]1CC[C@H]2[C@@H]3CCC4=CC(=O)CC[C@]4(C)[C@H]3CC[C@]12C [testosterone tridecanoate, (8R,9S,10R,13S,14S,17S)-10,13-dimethyl-3-oxo-1,2,6,7,8,9,11,12,14,15,16,17-dodecahydrocyclopenta[a]phenanthren-17-yl tridecanoate]",Solubility mg/g at ~20-23° C.,solvent Benzyl Alcohol,322 mg/g
same,Solubility mg/g at ~20-23° C.,solvent Benzyl Benzoate,223 mg/g
same,Solubility mg/g at ~20-23° C.,solvent Castor Oil,55 mg/g
same,Solubility mg/g at ~20-23° C.,solvent Corn glycerides -Maisine,77 mg/g
same,Solubility mg/g at ~20-23° C.,solvent Corn oil,35 mg/g
same,Solubility mg/g at ~20-23° C.,solvent Cremophor RH40,10 mg/g
same,Solubility mg/g at ~20-23° C.,solvent Ethanol,27 mg/g
same,Solubility mg/g at ~20-23° C.,solvent Fatty Acid -Oleic acid,114 mg/g
same,Solubility mg/g at ~20-23° C.,solvent Medium chain glycerides-Capmul,68 mg/g
same,Solubility mg/g at ~20-23° C.,solvent Olive Oil,38 mg/g
same,Solubility mg/g at ~20-23° C.,solvent Peppermint Oil,~200 mg/g
